Our source for the Vmax values is paper PMC2997912 (Molecular pharmaceutics, 2010).

The target of this assay is T1, hASBT (Homo sapiens, UniProt Q12908).
T1 sequence (Q12908 1-348): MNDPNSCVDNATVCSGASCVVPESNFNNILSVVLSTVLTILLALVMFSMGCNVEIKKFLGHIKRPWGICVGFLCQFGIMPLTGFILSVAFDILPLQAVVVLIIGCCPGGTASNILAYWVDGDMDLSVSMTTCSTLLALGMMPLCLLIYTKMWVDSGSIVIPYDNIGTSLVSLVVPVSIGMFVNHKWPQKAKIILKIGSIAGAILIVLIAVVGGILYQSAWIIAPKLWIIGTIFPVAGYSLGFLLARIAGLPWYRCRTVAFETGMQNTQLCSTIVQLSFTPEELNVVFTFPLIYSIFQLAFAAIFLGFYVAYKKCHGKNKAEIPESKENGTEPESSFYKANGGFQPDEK
Description: Conjugate uptake into hASBT-MDCK cells in the presence of sodium. The format is cell-based.

For the compound `C[C@H](CCC(=O)NCCS(=O)(=O)O)[C@H]1CC[C@H]2[C@@H]3[C@H](O)C[C@@H]4C[C@H](O)CC[C@]4(C)[C@H]3C[C@H](O)[C@]12C` [taurocholate, Taurocholate], the Vmax stood at 0.699 pmol/cm^2/s.
